Laboratory results published in publication PMC4368888, “Preclinical to Clinical Translation of CNS Transporter Occupancy of TD-9855, a Novel Norepinephrine and Serotonin Reuptake Inhibitor” (International Journal of Neuropsychopharmacology, 2015).

Legend:
[1] = molecular target: T1, SERT (Rattus norvegicus, UniProt P31652); assay: Ex vivo SERT occupancy in rat spinal cord with PK/PD modeling; conditions: estimate (% CV)
T1 construct: from tissue; host or cells: rat lumbar spinal cord after oral dosing
Experimental: TD-9855 Rat Administration and Sampling — Rats (n = 6/timepoint/dose level) received a single oral dose of TD-9855 (0.3, 1, 5, 10, 30, and 60mg/kg) and were euthanized by decapitation at specified time points (0.5, 2, 4, 6, and 8hr for 5mg/kg dose level; 2hr for 0.3, 1, 10, 30, and 60mg/kg dose levels) post-administration. Spinal cords were dissected for ex vivo transporter occupancy and PK assessments from the same animals. The spinal cord was harvested by hydraulic extrusion using phosphate-buffered saline, and the lumbar segment dissected and frozen on dry ice. The remaining spinal cord segments were collected and homogenized in water (25% w/w) for PK analysis. All samples were stored at -80 °C until analysis.
A kinetic radioligand binding assay was used to determine NET and SERT occupancy in rat spinal cord, as described previously ([Bourdet et al., 2012]).
Rat PK/PD Modeling — PK/PD parameters were estimated by a compartmental modeling approach (WinNonlin Version 5.0.1, Pharsight Corporation). One- and two-compartment PK models with first-order absorption and elimination were evaluated. The one-compartment model was selected. The pharmacodynamic model was an effect compartment Emax model linked directly to the central PK compartment (WinNonlin PK Model 3, PD Model 101). Selection of models was based upon best fit in terms of visual inspection, Akaike Information Criteria, and weighted residual sum of squares using the Gauss-Newton minimization method. The following parameters were estimated:
Emax (% occupancy): Maximal SERT or NET occupancy in spinal cord
keo (hr^-1): First-order equilibration rate constant between the central pharmacokinetic compartment and the pharmacodynamic effect compartment

[2] = molecular target: SERT (Homo sapiens, UniProt P31645); assay: [3H]-citalopram equilibrium binding, HEK293-hSERT membranes; design: expressed in transfected cells; host or cells: HEK293 (HEK293-hSERT), stably transfected; conditions: mean (95% CI), 3 to 9 experiments, read-out: Transporter Binding: pKi SERT (converted)
Source text: The in vitro pharmacology of TD-9855 (4-[2-(2, 4, 6-trifluorophenoxymethyl)phenyl]piperidine; Figure 1) at human recombinant and rat native monoamine transporters was characterized as described previously ([Tsuruda et al., 2010]; [Shen et al., 2013]). Radioligands were sourced commercially (Perkin Elmer Life Sciences or GE Healthcare Life Sciences). Briefly, membranes prepared from HEK293 (Human Embryonic Kidney 293) cells stably-transfected with human recombinant SERT (HEK293-hSERT), NET (HEK293-hNET), or DAT ([…]) were incubated for 1hr at 22°C in the absence, or presence, of TD-9855 and [^3H]-citalopram (1.0nM) for SERT, [^3H]-nisoxetine (2.0nM) for NET, and [^3H]-WIN35428 (3.0nM) for DAT in 50mM Tris-HCl, 120mM NaCl, 5mM KCl, 0.025% BSA, 100 μM ascorbic acid, pH 7.4. Rat cortical membrane preparations were incubated with [^3H]-citalopram (2.0nM) for SERT or [^3H]-nisoxetine (4.0nM) for NET for 1hr at 22°C. […] Binding and uptake assays were terminated by rapid filtration and radioactivity, determined by liquid scintillation spectroscopy.

[3] = design: method as in Theravance Biopharma US, Inc., data on file; conditions: rat; ref Theravance Biopharma US, Inc., data on file; cited from earlier work
[4] = Human plasma pharmacokinetics; assay type: in vivo; conditions: 20mg single oral dose, Day 1, n = 3
Experimental: Four 6mL samples were drawn at 2, 4, 6, and 24hr post TD-9855 dosing. Three additional 6mL samples were drawn prior to each PET scan and approximately 60 and 120min after the beginning of each PET scan. Plasma samples were analyzed for TD-9855 concentrations by a validated LC-MS/MS method. The lower limit of quantification for TD-9855 was 0.05ng/mL.

T1 sequence (P31652 whole entry): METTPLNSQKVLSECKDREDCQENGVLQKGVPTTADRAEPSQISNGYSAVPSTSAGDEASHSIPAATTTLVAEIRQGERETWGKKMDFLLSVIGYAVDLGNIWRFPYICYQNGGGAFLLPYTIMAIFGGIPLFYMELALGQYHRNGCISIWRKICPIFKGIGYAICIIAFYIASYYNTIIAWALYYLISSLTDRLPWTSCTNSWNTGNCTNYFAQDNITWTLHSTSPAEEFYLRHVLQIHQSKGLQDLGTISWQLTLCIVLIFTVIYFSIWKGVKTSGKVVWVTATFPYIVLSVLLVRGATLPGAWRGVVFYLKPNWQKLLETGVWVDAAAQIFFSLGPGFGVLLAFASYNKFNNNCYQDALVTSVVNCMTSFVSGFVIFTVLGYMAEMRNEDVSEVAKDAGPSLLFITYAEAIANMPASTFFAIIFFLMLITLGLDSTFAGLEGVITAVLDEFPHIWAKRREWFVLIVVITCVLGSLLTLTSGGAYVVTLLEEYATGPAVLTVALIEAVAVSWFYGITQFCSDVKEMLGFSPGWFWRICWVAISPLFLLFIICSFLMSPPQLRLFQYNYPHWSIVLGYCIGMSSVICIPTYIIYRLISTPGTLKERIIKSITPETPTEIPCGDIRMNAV
Chain of SERT (Homo sapiens, UniProt P31645) (P31645 whole entry): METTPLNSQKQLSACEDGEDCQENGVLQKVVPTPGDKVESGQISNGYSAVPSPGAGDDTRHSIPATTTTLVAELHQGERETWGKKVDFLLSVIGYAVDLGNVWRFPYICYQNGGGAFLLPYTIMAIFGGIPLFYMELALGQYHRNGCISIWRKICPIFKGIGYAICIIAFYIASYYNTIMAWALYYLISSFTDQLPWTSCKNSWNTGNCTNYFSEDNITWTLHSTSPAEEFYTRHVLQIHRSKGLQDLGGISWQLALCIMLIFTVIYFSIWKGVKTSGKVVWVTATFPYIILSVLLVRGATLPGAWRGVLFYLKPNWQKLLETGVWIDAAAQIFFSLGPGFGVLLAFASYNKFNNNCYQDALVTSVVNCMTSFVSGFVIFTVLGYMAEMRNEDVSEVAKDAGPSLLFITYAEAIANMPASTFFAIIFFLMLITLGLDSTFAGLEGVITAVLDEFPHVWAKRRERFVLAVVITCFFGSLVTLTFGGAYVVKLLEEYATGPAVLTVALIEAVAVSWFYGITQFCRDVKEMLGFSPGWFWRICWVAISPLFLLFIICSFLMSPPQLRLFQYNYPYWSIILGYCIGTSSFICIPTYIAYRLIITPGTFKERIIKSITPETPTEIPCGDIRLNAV

With `Fc1cc(F)c(OCc2ccccc2C2CCNCC2)c(F)c1` [TD-9855, 4-[2-(2,4,6-trifluorophenoxymethyl)phenyl]piperidine] the “Emax (% Occupancy), SERT” value ([1]; rat spinal cord, oral 0.3-60mg/kg) was 79.0 (53) % Occupancy, the EC50 ([1]; rat spinal cord, plasma EC50) was 0.158 µM and the “keo, SERT” value ([1]; rat, equilibration rate constant plasma to effect compartment) was 11.0 (86) hr^-1. The Ki [2] was 0.00316 µM, the plasma protein binding [3] was 90.2% and the “mean plasma concentration at SERT scan” value [4] was 6.35 ng/mL.
